From ChEMBL document CHEMBL4316653, “Cytotoxic Components from Hypericum elodeoides Targeting RXRα and Inducing HeLa Cell Apoptosis through Caspase-8 Activation and PARP Cleavage” (J Nat Prod, 2019)
Activity calls are given as the source filed them. The rule behind the calls is not given here.

Assays:
HeLa [1] = test: Cytotoxicity against human HeLa cells assessed as cell viability at 50 uM measured after 48 hrs by MTT assay; format: functional; details: read-out: Activity
HepG2 [2] = test: Cytotoxicity against human HepG2 cells assessed as cell viability at 50 uM measured after 48 hrs by MTT assay; format: functional; details: HepG2, 48 h, read-out: Activity
MCF7 [3] = test: Cytotoxicity against human MCF7 cells assessed as cell viability at 50 uM measured after 48 hrs by MTT assay; format: functional; details: MCF7, 48 h, read-out: Activity
SMMC-7721 [4] = test: Cytotoxicity against human SMMC7721 cells assessed as cell viability at 50 uM measured after 48 hrs by MTT assay; format: functional; details: SMMC-7721, 48 h, read-out: Activity
[5] = biological target: T1, Retinoic acid receptor RXR-alpha (Homo sapiens) (UniProt P19793); test: Transrepression of GAL4-fused RXRalpha LBD (unknown origin) expressed in 293T cells assessed as inhibition of 9-cis-RA-induced transcription at 50 uM measured after 12 hrs by dual-luciferase reporter gene assay; format: cell-based
T1 sequence (whole entry): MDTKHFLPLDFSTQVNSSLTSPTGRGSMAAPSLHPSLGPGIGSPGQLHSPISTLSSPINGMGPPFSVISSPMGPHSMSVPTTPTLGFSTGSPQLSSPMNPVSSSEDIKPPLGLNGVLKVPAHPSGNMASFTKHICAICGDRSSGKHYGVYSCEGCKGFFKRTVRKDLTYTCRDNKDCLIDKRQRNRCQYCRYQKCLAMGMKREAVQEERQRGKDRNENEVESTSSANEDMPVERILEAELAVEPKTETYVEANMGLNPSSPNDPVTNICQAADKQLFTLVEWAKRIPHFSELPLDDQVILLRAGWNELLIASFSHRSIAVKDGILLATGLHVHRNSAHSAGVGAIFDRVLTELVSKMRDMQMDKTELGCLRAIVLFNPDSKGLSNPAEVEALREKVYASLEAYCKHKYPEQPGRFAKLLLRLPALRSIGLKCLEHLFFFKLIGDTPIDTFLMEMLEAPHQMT

[6] = biological target: T1, Retinoic acid receptor RXR-alpha (Homo sapiens); test: Transrepression of GAL4-fused RXRalpha LBD (unknown origin) expressed in 293T cells assessed as inhibition of 9-cis-RA-induced transcription measured after 12 hrs by dual-luciferase reporter gene assay; format: cell-based
HeLa [7] = test: Cytotoxicity against human HeLa cells assessed as inhibition of cell proliferation at 50 uM measured after 48 hrs by MTT assay; format: functional
HepG2 [8] = test: Cytotoxicity against human HepG2 cells assessed as reduction in cell viability at 50 uM measured after 48 hrs by MTT assay; format: functional, cell-based
MCF7 [9] = test: Cytotoxicity against human MCF7 cells assessed as reduction in cell viability at 50 uM measured after 48 hrs by MTT assay; format: functional, cell-based
SMMC-7721 [10] = test: Cytotoxicity against human SMMC7721 cells assessed as reduction in cell viability at 50 uM measured after 48 hrs by MTT assay; format: functional, cell-based
HeLa [11] = test: Induction of apoptosis in human HeLa cells assessed as increase in cleaved PARP expression at 50 uM by Western blot analysis; format: functional, cell-based; details: TDE = time-dependent effect
HeLa [12] = test: Induction of apoptosis in human HeLa cells assessed as increase in cleaved PARP expression after 24 hrs by Western blot analysis; format: functional, cell-based
HeLa [13] = test: Induction of apoptosis in human HeLa cells assessed as increase in caspase-8 activity at 50 uM measured after 10 hrs by Caspase-Glo luminescence assay; format: functional, cell-based
HeLa [14] = test: Induction of apoptosis in human HeLa cells assessed as increase in caspase-3 activity at 50 uM measured after 10 hrs by Caspase-Glo luminescence assay; format: functional, cell-based
[15] = biological target: T1, Retinoic acid receptor RXR-alpha (Homo sapiens); test: (§1) Binding affinity to recombinant human RXRalpha LBD ([…] residues) expressed in Escherichia coli BL21 (DE3) by fluorescence quenching assay
[16] = biological target: T2, Retinoic acid receptor RXR-alpha (Homo sapiens, UniProt P19793); test: as §1
T2 sequence (P19793 whole entry): T1 sequence (whole entry)

HeLa [17] = test: Induction of apoptosis in human HeLa cells assessed as increase in cleaved PARP expression at 20 uM by Western blot analysis; format: functional, cell-based; details: TDE = time-dependent effect
HeLa [18] = test: Induction of apoptosis in human HeLa cells assessed as increase in caspase-8 activity at 20 uM measured after 10 hrs by Caspase-Glo luminescence assay; format: functional, cell-based
HeLa [19] = test: Induction of apoptosis in human HeLa cells assessed as increase in caspase-3 activity at 20 uM measured after 10 hrs by Caspase-Glo luminescence assay; format: functional, cell-based

COc1ccc2c(=O)c3cccc(O)c3oc2c1
viability at 50 µM (HeLa [1]): < 50% | viability at 50 µM (HepG2 [2]): < 50% | viability at 50 µM (MCF7 [3]): < 50% | viability at 50 µM (SMMC-7721 [4]): < 50%

CC[C@H](C)c1cc(=O)c2c(O)cc(O)cc2o1
inhibition [5]: Active | inhibition [6]: Dose-dependent effect | inhibition at 50 µM (HeLa [7]): > 50% | Activity (HepG2 [8]): inactive | Activity (MCF7 [9]): inactive | Activity (SMMC-7721 [10]): inactive | Activity (HeLa [11]): Tde | Activity (HeLa [12]): Dose-dependent effect | Activity (HeLa [13]): Active | Activity (HeLa [14]): inactive | Activity [15]: Dose-dependent effect | Kd [16]: 68.3 µM

COc1cc([C@H]2OC(=O)[C@H]3[C@@H]2CO[C@@H]3c2ccc(O)c(OC)c2)ccc1O
inhibition [5]: Active | viability at 50 µM (HeLa [1]): < 50% | viability at 50 µM (HepG2 [2]): < 50% | viability at 50 µM (MCF7 [3]): < 50% | viability at 50 µM (SMMC-7721 [4]): < 50%

COc1cc(-c2cc(=O)c3c(O)cc(O)cc3o2)ccc1O
inhibition [5]: Active | inhibition [6]: Dose-dependent effect

CC(C)=CCOc1cc2c(=O)c3c(O)cc(O)cc3oc2cc1O
inhibition [5]: Active | inhibition [6]: Dose-dependent effect | inhibition at 50 µM (HeLa [7]): > 50% | Activity (HepG2 [8]): inactive | Activity (MCF7 [9]): inactive | Activity (SMMC-7721 [10]): inactive | Activity (HeLa [17]): Tde | Activity (HeLa [12]): Dose-dependent effect | Activity (HeLa [18]): Active | Activity (HeLa [19]): inactive | Activity [15]: Dose-dependent effect | Kd [16]: 14 µM

Cc1cc2c(cc1-c1cc(/C=C/C(=O)O)ccc1O)C(C)(C)CCC2(C)C
Activity [15]: Dose-dependent effect

CC(C)c1cc(=O)c2c(O)cc(O)cc2o1
inhibition [5]: Active
